Experimental data published in patent publication US6410255B1, “Optical probes and assays” (priority 1999, dated 2002).
*1 amine or outer side, *2 acyl side, *3 side chain or, on linkers, in order; H or OH if unused. Where a SMILES comes first, the peptide text is derived from it. Bridges are numbered along the chain shown (N, C = ends). [ ]: non-standard residue; d: D form. Adda = CO[C@@H](Cc1ccccc1)[C@@H](C)/C=C(C)/C=C/[C@H](N[*:1])[C@H](C)C(=O)[*:2]; dAsp(3S-Me) = C[C@H](C(=O)[*:3])[C@@H](N[*:1])C(=O)[*:2]; d(γGlu) = O=C(O)[C@@H](CCC(=O)[*:2])N[*:1]; NMeDha = C=C(NC)C(=O)O

What was measured:
Type in all cases: biochemical
[1] = molecular target: T1, v-Abl kinase (Abelson murine leukemia virus, UniProt P00521); assay: v-Abl kinase phosphorylation of optical probe, fluorescence readout after chymotrypsin; details: v-Abl, abl optical probe as substrate; read-out: apparent Km for ATP
T1 construct: purchased Calbiochem

[2] = molecular target: PP1 (Homo sapiens, UniProt P62136); assay: PP1 inhibitor assay with optical probe
Protocol: (§1) To determine if the optical probe protein phosphatase assay could detect inhibitors of PP1, the phosphatase assay was performed in the presence or absence of 1 μM microcystin-LR, a potent inhibitor of PP1. Phosphatase assays were set up as described above except the phosphatase was allowed to pre-incubate with microcystin-LR for 10 minutes before the addition of phosphorylated or non-phosphorylated optical probes (SEQ. ID. NO: 23). PP1 reactions were incubated at 30 C for 1 hour and then diluted to 100 μL in 50 mM HEPES, pH 7.5 followed by the addition of chymotrypsin to 0.2 μM. Fluorescence values were measured on the Cytofluor after a 2 hour incubation at room temperature as described above. After treatment of the phosphorylated optical probe with PP1 followed by chymotrypsin, the 460/530 ratio was 13.2±0.2. […] Thus, the present invention could be used to detect inhibitors of PP1 activity.

[3] = molecular target: PP2A (Homo sapiens, UniProt P67775); assay: PP2A inhibitor assay with optical probe
Protocol: (§2) To determine if the optical probe phosphatase assay could detect inhibitors of PP2A, the phosphatase assay was performed in the presence or absence of 100 nM microcystin-LR. PP2A assays were set up as described above, and were incubated at 30 C for 2 hours. Reactions were diluted to 100 μL with 50 mM HEPES, pH 7.5 followed by the addition of chymotrypsin to 0.2 μM. Fluorescence values were measured on the Cytofluor after a 1.5 hour incubation at room temperature. As described above, treatment of the phosphorylated optical probe (SEQ. ID. NO: 23) with PP2A followed by chymotrypsin gave a final 460/530 ratio of 8.8±0.1. […] Thus, the optical probe based phosphatase assay can detect inhibitors of PP2A activity.

[4] = molecular target: chymotrypsin (Bos taurus, UniProt P00766); assay: Control: effect of inhibitor on chymotrypsin cleavage of non-phosphorylated probe
Protocol: as §1, §2

PP2A, sequence (P67775 whole entry): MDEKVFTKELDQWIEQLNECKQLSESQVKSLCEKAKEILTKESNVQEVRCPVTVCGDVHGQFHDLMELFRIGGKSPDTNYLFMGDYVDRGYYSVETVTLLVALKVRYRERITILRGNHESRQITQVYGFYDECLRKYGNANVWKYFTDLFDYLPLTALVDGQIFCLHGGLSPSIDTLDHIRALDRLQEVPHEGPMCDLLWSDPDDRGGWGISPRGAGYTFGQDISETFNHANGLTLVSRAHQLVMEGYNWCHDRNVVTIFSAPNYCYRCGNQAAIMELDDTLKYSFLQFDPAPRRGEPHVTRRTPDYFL
PP1, sequence (P62136 whole entry): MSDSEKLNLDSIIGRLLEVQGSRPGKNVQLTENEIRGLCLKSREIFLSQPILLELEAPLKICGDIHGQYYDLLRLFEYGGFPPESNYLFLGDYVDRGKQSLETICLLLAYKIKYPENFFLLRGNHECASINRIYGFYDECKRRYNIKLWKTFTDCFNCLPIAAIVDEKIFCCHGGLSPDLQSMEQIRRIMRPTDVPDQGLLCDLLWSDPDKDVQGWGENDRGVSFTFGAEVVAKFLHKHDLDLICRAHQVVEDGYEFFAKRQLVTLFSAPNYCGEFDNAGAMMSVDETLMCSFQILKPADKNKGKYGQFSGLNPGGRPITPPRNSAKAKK
T1 sequence (P00521 whole entry): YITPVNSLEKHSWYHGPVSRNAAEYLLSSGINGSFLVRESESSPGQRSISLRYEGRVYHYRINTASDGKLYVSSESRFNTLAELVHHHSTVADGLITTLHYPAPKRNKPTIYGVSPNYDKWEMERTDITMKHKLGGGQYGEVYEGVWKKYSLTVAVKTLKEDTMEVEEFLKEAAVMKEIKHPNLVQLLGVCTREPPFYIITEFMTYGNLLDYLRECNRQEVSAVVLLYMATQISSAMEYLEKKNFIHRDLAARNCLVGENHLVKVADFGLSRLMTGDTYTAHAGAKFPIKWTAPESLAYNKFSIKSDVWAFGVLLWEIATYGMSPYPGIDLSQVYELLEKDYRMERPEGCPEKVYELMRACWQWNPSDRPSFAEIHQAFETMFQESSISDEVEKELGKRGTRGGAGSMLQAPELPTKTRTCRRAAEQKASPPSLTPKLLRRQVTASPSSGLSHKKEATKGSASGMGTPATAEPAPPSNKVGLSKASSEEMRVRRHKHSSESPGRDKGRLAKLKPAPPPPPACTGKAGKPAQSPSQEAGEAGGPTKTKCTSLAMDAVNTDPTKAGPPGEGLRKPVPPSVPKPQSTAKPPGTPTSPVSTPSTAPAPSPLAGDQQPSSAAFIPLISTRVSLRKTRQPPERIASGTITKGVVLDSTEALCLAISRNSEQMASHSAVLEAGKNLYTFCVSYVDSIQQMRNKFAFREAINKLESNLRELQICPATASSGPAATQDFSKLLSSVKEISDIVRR

| Structure (SMILES) | Km [1] [µM] | 460/530 ratio After Chymotrypsin, Phosphorylated Optical probe + PP1 + microcystin-LR [2] | inhibition of PP1 activity [2] | 460/530 ratio After Chymotrypsin, Phosphorylated Optical probe + PP2A + microcystin-LR [3] | 460/530 ratio Before Chymotrypsin, Phosphorylated Optical probe + PP2A + microcystin-LR [3] | inhibition of PP2A activity [3] | 460/530 ratio After Chymotrypsin, Non-phosphorylated Optical probe + PP1 + microcystin-LR [4] | 460/530 ratio After Chymotrypsin, Non-phosphorylated Optical probe + PP2A + microcystin-LR [4] | 460/530 ratio Before Chymotrypsin, Non-phosphorylated Optical probe + PP2A + microcystin-LR [4] | inhibition of chymotrypsin cleavage [4] |
| --- | --- | --- | --- | --- | --- | --- | --- | --- | --- | --- |
| Nc1ncnc2c1ncn2[C@@H]1O[C@H](COP(=O)(O)OP(=O)(O)OP(=O)(O)O)[C@@H](O)[C@H]1O [ATP] | 8 | – | – | – | – | – | – | – | – | – |
| C=C1C(=O)N[C@H](C)C(=O)N[C@@H](CC(C)C)C(=O)N[C@@H](C(=O)O)[C@H](C)C(=O)N[C@@H](CCCNC(=N)N)C(=O)N[C@@H](/C=C/C(C)=C/[C@H](C)[C@H](Cc2ccccc2)OC)[C@H](C)C(=O)N[C@@H](C(=O)O)CCC(=O)N1C [microcystin-LR, reference compound] (R[Adda][d(γGlu)][NMeDha][dA]L[dAsp(3S-Me)]-OH; lactam N-7) | – | 2.8 ± 0.1 | almost completely inhibited | 1.9 ± 0.1 | 1.4 ± 0.1 | completely inhibited | 13.3 ± 0.2 | 11.1 ± 0.2 | 1.4 ± 0.1 | did not inhibit |
